Laboratory results reported in the NIST ThermoML archive (doi:10.1021/je3013638).
± gives the expanded uncertainty stated by the source.

Conditions: Liquid, Closed cell (Static) method

SMILES: Nc1cc(Cl)cc(Cl)c1 [3,5-dichloroaniline]
- vapor or sublimation pressure (446.6 K): 10.25 ± 0.13 kPa
- vapor or sublimation pressure (453.88 K): 12.95 ± 0.15 kPa
- vapor or sublimation pressure (457.69 K): 14.44 ± 0.17 kPa
- vapor or sublimation pressure (463.14 K): 16.64 ± 0.19 kPa
- vapor or sublimation pressure (464.4 K): 17.2 ± 0.2 kPa
- vapor or sublimation pressure (466.41 K): 18.21 ± 0.22 kPa
- vapor or sublimation pressure (468.53 K): 19.57 ± 0.23 kPa
- vapor or sublimation pressure (469.09 K): 19.87 ± 0.22 kPa
- vapor or sublimation pressure (470.18 K): 20.2 ± 0.23 kPa
- vapor or sublimation pressure (473.66 K): 22.16 ± 0.3 kPa
- vapor or sublimation pressure (474.48 K): 23.01 ± 0.28 kPa
- vapor or sublimation pressure (475.29 K): 23.48 ± 0.26 kPa
- vapor or sublimation pressure (477.65 K): 24.67 ± 0.28 kPa
- vapor or sublimation pressure (481.31 K): 27.19 ± 0.32 kPa
- vapor or sublimation pressure (484.05 K): 29.6 ± 0.33 kPa
- vapor or sublimation pressure (487.88 K): 32.05 ± 0.36 kPa
- vapor or sublimation pressure (490.85 K): 35.09 ± 0.41 kPa
- vapor or sublimation pressure (492.54 K): 36.63 ± 0.41 kPa
- vapor or sublimation pressure (495.3 K): 38.71 ± 0.43 kPa
- vapor or sublimation pressure (497.31 K): 41.11 ± 0.46 kPa
- vapor or sublimation pressure (500.72 K): 44.06 ± 0.49 kPa
- vapor or sublimation pressure (503.96 K): 47.64 ± 0.53 kPa
- vapor or sublimation pressure (507.34 K): 51.52 ± 0.58 kPa
- vapor or sublimation pressure (509.76 K): 55.17 ± 0.62 kPa
- vapor or sublimation pressure (512.08 K): 58.05 ± 0.63 kPa
- vapor or sublimation pressure (513.94 K): 60.01 ± 0.66 kPa
- vapor or sublimation pressure (516.09 K): 63.13 ± 0.71 kPa
- vapor or sublimation pressure (518.15 K): 66.66 ± 0.74 kPa
- vapor or sublimation pressure (519.82 K): 68.55 ± 0.75 kPa
- vapor or sublimation pressure (521.75 K): 71.6 ± 0.81 kPa
- vapor or sublimation pressure (523.61 K): 75.31 ± 0.84 kPa
- vapor or sublimation pressure (525.72 K): 78.65 ± 0.85 kPa
- vapor or sublimation pressure (528.31 K): 82.54 ± 0.91 kPa
- vapor or sublimation pressure (530.51 K): 87.17 ± 0.96 kPa
- vapor or sublimation pressure (532.9 K): 91.08 ± 1 kPa
- vapor or sublimation pressure (534.94 K): 95.84 ± 1.1 kPa
